# Source: patent publication US9593149B2, “Amylin and calcitonin receptor agonist” (Novo Nordisk A/S, priority 2014, dated 2017)
# Numbered stars: 1 amine (or outer) side, 2 acyl side, 3 side chain; on linkers, the order of the positions; unused ones are H or OH. Peptide text beside a SMILES is read from it. * marks the point of attachment. C20 diacid = O=C(O)CCCCCCCCCCCCCCCCCCC(=O)*; C18 diacid = O=C(O)CCCCCCCCCCCCCCCCC(=O)*; γGlu = O=C(O)[C@H](CCC(=O)[*:2])N[*:1]
# Test: Assay (IV) determination of solubility
# Format: physicochemical
# Procedure: Assay (IV)—Determination of Solubility
# The mimylin peptide was dissolved in water at ˜500 nmol/ml and mixed 1:1 with a series of buffers (100 mM glycylglycine pH 3.0, 100 mM glycylglycine pH 4.0, 100 mM glycylglycine pH 5.0, 100 mM bistrispropane pH 6.0, 100 mM bistrispropane pH 6.5, 100 mM bistrispropane pH 7.0, 100 mM bistrispropane pH 7.5, 100 mM bistrispropane pH 8.0).
SMILES,Solubility (pH 3.0),Solubility (pH 4.0),Solubility (pH 5.0),Solubility (pH 6.0),Solubility (pH 6.5),Solubility (pH 7.0),Solubility (pH 7.5),Solubility (pH 8.0),solubility at 18 h (pH 6.0) [µM],Solubility (pH 3),Solubility (pH 4),Solubility (pH 5),Solubility (pH 6),Solubility (pH 7),Solubility (pH 8),solubility at 18 h (pH 4.0) [µM],solubility at 18 h (pH 5.0) [µM]
"CC(C)C[C@H](NC(=O)[C@H](C)NC(=O)[C@H](C)NC(=O)[C@@H](NC(=O)[C@H](CO)NC(=O)[C@H](CC(C)C)NC(=O)[C@H](CCC(=O)O)NC(=O)[C@H](CO)NC(=O)[C@H](C)NC(=O)CC[C@H](NC(=O)CCCCCCCCCCCCCCCCCCC(=O)O)C(=O)O)[C@@H](C)O)C(=O)NCC(=O)N[C@@H](Cc1cnc[nH]1)C(=O)N[C@@H](CC(C)C)C(=O)N[C@@H](CO)C(=O)N[C@@H](C)C(=O)N[C@@H](CCC(=O)O)C(=O)N[C@@H](CC(C)C)C(=O)N[C@@H](Cc1cnc[nH]1)C(=O)N[C@@H](CCC(=O)O)C(=O)N[C@@H](CC(C)C)C(=O)N[C@@H](C)C(=O)N[C@H](C(=O)N[C@@H](CC(C)C)C(=O)N1CCC[C@H]1C(=O)N[C@@H](Cc1cnc[nH]1)C(=O)N[C@H](C(=O)N[C@@H](CCC(=O)O)C(=O)N[C@H](C(=O)NCC(=O)N[C@@H](CO)C(=O)NCC(=O)N[C@@H](CO)C(=O)N1CCC[C@H]1C(N)=O)[C@@H](C)O)[C@@H](C)O)[C@@H](C)O [compound 84, [N-terminal(C20 diacid-gGlu), des1, 12H, 25H, 30S, 31G]mimylin] ({C20 diacid-γGlu}-ASELSTAALGHLSAELHELATLPHTETGSGSP-NH2)",≧200 μM,≧200 μM,≧200 μM,≧200 μM,≧200 μM,≧200 μM,≧200 μM,≧200 μM,–,–,–,–,–,–,–,–,–
"CC(C)C[C@H](NC(=O)[C@H](CCC(=O)O)NC(=O)[C@H](Cc1cnc[nH]1)NC(=O)[C@H](CC(C)C)NC(=O)[C@H](CCC(=O)O)NC(=O)[C@H](C)NC(=O)[C@H](CO)NC(=O)[C@H](CC(C)C)NC(=O)[C@H](CCCNC(=N)N)NC(=O)CNC(=O)[C@H](CC(C)C)NC(=O)[C@@H](NC(=O)[C@H](C)NC(=O)[C@@H](NC(=O)[C@H](CO)NC(=O)[C@@H](NC(=O)[C@H](CCC(=O)O)NC(=O)[C@H](CO)NC(=O)[C@H](C)NC(=O)CC[C@H](NC(=O)CCCCCCCCCCCCCCCCC(=O)O)C(=O)O)C(C)C)[C@@H](C)O)C(C)C)C(=O)N[C@@H](C)C(=O)N[C@H](C(=O)N[C@@H](CC(C)C)C(=O)N1CCC[C@H]1C(=O)N[C@@H](CCCNC(=N)N)C(=O)N[C@H](C(=O)N[C@@H](CCC(=O)O)C(=O)N[C@H](C(=O)NCC(=O)N[C@@H](CO)C(=O)NCC(=O)N[C@@H](CO)C(=O)N1CCC[C@H]1C(N)=O)[C@@H](C)O)[C@@H](C)O)[C@@H](C)O [compound 86, [N-terminal(C18 diacid-gGlu), des1, 5V, 9V, 30S, 31G]mimylin] ({C18 diacid-γGlu}-ASEVSTAVLGRLSAELHELATLPRTETGSGSP-NH2)",≧200 μM,≧200 μM,≧200 μM,–,≧200 μM,≧200 μM,≧200 μM,≧200 μM,38,–,–,–,–,–,–,–,–

# The remaining lines, values ahead:
Solubility (pH 3.0),Solubility (pH 4.0),Solubility (pH 5.0),Solubility (pH 6.0),Solubility (pH 6.5),Solubility (pH 7.0),Solubility (pH 7.5),Solubility (pH 8.0),solubility at 18 h (pH 6.0) [µM],Solubility (pH 3),Solubility (pH 4),Solubility (pH 5),Solubility (pH 6),Solubility (pH 7),Solubility (pH 8),solubility at 18 h (pH 4.0) [µM],solubility at 18 h (pH 5.0) [µM],SMILES
–,–,–,–,≧200 μM,–,≧200 μM,–,–,≧200 μM,≧200 μM,≧200 μM,≧200 μM,≧200 μM,≧200 μM,–,–,"CC(C)C[C@H](NC(=O)[C@H](C)NC(=O)[C@H](C)NC(=O)[C@@H](NC(=O)[C@H](CO)NC(=O)[C@H](CC(C)C)NC(=O)[C@H](CCC(N)=O)NC(=O)[C@H](CO)NC(=O)[C@H](C)NC(=O)CC[C@H](NC(=O)CCCCCCCCCCCCCCCCC(=O)O)C(=O)O)[C@@H](C)O)C(=O)NCC(=O)N[C@@H](CCCNC(=N)N)C(=O)N[C@@H](CC(C)C)C(=O)N[C@@H](CO)C(=O)N[C@@H](C)C(=O)N[C@@H](CCC(N)=O)C(=O)N[C@@H](CC(C)C)C(=O)N[C@@H](Cc1cnc[nH]1)C(=O)N[C@@H](CCC(=O)O)C(=O)N[C@@H](CC(C)C)C(=O)N[C@@H](C)C(=O)N[C@H](C(=O)N[C@@H](CC(C)C)C(=O)N1CCC[C@H]1C(=O)N[C@@H](CCCNC(=N)N)C(=O)N[C@H](C(=O)N[C@@H](CCC(=O)O)C(=O)N[C@H](C(=O)NCC(=O)N[C@@H](CO)C(=O)NCC(=O)N[C@@H](CO)C(=O)N1CCC[C@H]1C(N)=O)[C@@H](C)O)[C@@H](C)O)[C@@H](C)O [compound 87, [N-terminal(C18 diacid-gGlu), des1, 4Q, 16Q, 30S, 31G]mimylin] ({C18 diacid-γGlu}-ASQLSTAALGRLSAQLHELATLPRTETGSGSP-NH2)"
≧200 μM,–,–,≧200 μM,≧200 μM,≧200 μM,≧200 μM,≧200 μM,–,–,–,–,–,–,–,1,6,"CC(C)C[C@H](NC(=O)[C@H](C)NC(=O)[C@H](C)NC(=O)[C@@H](NC(=O)[C@H](CO)NC(=O)[C@H](CC(C)C)NC(=O)[C@H](CCC(=O)O)NC(=O)[C@H](CO)NC(=O)[C@H](C)NC(=O)CC[C@H](NC(=O)CCCCCCCCCCCCCCCCCCC(=O)O)C(=O)O)[C@@H](C)O)C(=O)NCC(=O)N[C@@H](CCCNC(=N)N)C(=O)N[C@@H](CC(C)C)C(=O)N[C@@H](CO)C(=O)N[C@@H](C)C(=O)N[C@@H](CCC(=O)O)C(=O)N[C@@H](CC(C)C)C(=O)N[C@@H](Cc1cnc[nH]1)C(=O)N[C@@H](CCC(=O)O)C(=O)N[C@@H](CC(C)C)C(=O)N[C@@H](C)C(=O)N[C@H](C(=O)N[C@@H](Cc1ccc(O)cc1)C(=O)N1CCC[C@H]1C(=O)N[C@@H](CCCNC(=N)N)C(=O)N[C@H](C(=O)N[C@@H](CCC(=O)O)C(=O)N[C@H](C(=O)NCC(=O)N[C@@H](CO)C(=O)NCC(=O)N[C@@H](CO)C(=O)N[C@@H](Cc1ccc(O)cc1)C(=O)O)[C@@H](C)O)[C@@H](C)O)[C@@H](C)O [compound 88, [N-terminal(C20 diacid-gGlu), des1, 23Y, 30S, 31G, 33Y, C-terminal(−)]mimylin] ({C20 diacid-γGlu}-ASELSTAALGRLSAELHELATYPRTETGSGSY-OH)"
≧200 μM,–,–,≧200 μM,≧200 μM,≧200 μM,≧200 μM,≧200 μM,–,–,–,–,–,–,–,7,29,"CC(C)C[C@H](NC(=O)[C@H](CO)NC(=O)[C@H](C)NC(=O)[C@@H](NC(=O)[C@H](CO)NC(=O)[C@H](CC(C)C)NC(=O)[C@H](CCC(=O)O)NC(=O)[C@H](CO)NC(=O)[C@H](C)NC(=O)CC[C@H](NC(=O)CCCCCCCCCCCCCCCCCCC(=O)O)C(=O)O)[C@@H](C)O)C(=O)NCC(=O)N[C@@H](CCCNC(=N)N)C(=O)N[C@@H](CC(C)C)C(=O)N[C@@H](CO)C(=O)N[C@@H](C)C(=O)N[C@@H](CCC(=O)O)C(=O)N[C@@H](CC(C)C)C(=O)N[C@@H](Cc1cnc[nH]1)C(=O)N[C@@H](CCC(=O)O)C(=O)N[C@@H](CC(C)C)C(=O)N[C@@H](C)C(=O)N[C@H](C(=O)N[C@@H](Cc1ccc(O)cc1)C(=O)N1CCC[C@H]1C(=O)N[C@@H](CCCNC(=N)N)C(=O)N[C@H](C(=O)N[C@@H](CCC(=O)O)C(=O)N[C@H](C(=O)NCC(=O)N[C@@H](CO)C(=O)NCC(=O)N[C@@H](CO)C(=O)N[C@@H](Cc1ccc(O)cc1)C(N)=O)[C@@H](C)O)[C@@H](C)O)[C@@H](C)O [compound 91, [N-terminal(C20 diacid-gGlu), des1, 9S, 23Y, 30S, 31G, 33Y]mimylin] ({C20 diacid-γGlu}-ASELSTASLGRLSAELHELATYPRTETGSGSY-NH2)"
